Experimental data published in PubChem BioAssay (NCI).
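Method: 48-hour compound exposure of cells in 96-well plates, five concentrations, linear interpolation of endpoints. TGI denotes the concentration required for complete inhibition of growth.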

What was measured:
Assay in all cases: NCI tumour cell line growth inhibition, 48 h
MDA-N = tested on: MDA-N
HOP-92 NSCLC = tested on: HOP-92 NSCLC
SK-MEL-2 melanoma = tested on: SK-MEL-2 melanoma
HCC-2998 colon = tested on: HCC-2998 colon
OVCAR-5 ovarian = tested on: OVCAR-5 ovarian
HCT-15 colon = tested on: HCT-15 colon
SF-295 CNS = tested on: SF-295 CNS
CCRF-CEM leukemia = tested on: CCRF-CEM leukemia
SR leukemia = tested on: SR leukemia
SK-OV-3 ovarian = tested on: SK-OV-3 ovarian
KM12 colon = tested on: KM12 colon
K-562 leukemia = tested on: K-562 leukemia
NCI-H23 lung = tested on: NCI-H23 lung
NCI-H226 lung = tested on: NCI-H226 lung
SK-MEL-28 melanoma = tested on: SK-MEL-28 melanoma
ACHN renal = tested on: ACHN renal
EKVX NSCLC = tested on: EKVX NSCLC
T-47D breast = tested on: T-47D breast
SF-539 CNS = tested on: SF-539 CNS
A498 renal = tested on: A498 renal
RPMI-8226 leukemia = tested on: RPMI-8226 leukemia
PC-3 prostate = tested on: PC-3 prostate
HOP-62 NSCLC = tested on: HOP-62 NSCLC
TK-10 renal = tested on: TK-10 renal
NCI/ADR-RES ovarian = tested on: NCI/ADR-RES ovarian
MOLT-4 leukemia = tested on: MOLT-4 leukemia
NCI-H460 lung = tested on: NCI-H460 lung
SF-268 CNS = tested on: SF-268 CNS
U251 CNS = tested on: U251 CNS
RXF 393 renal = tested on: RXF 393 renal
DU-145 prostate = tested on: DU-145 prostate
OVCAR-8 ovarian = tested on: OVCAR-8 ovarian
786-0 renal = tested on: 786-0 renal
NCI-H522 lung = tested on: NCI-H522 lung
UACC-257 melanoma = tested on: UACC-257 melanoma
CAKI-1 renal = tested on: CAKI-1 renal
OVCAR-3 ovarian = tested on: OVCAR-3 ovarian
M14 melanoma = tested on: M14 melanoma
HL-60(TB) leukemia = tested on: HL-60(TB) leukemia
HT29 colon = tested on: HT29 colon
HS 578T breast = tested on: HS 578T breast
MDA-MB-435 = tested on: MDA-MB-435
IGROV1 ovarian = tested on: IGROV1 ovarian
SW-620 colon = tested on: SW-620 colon
UO-31 renal = tested on: UO-31 renal
HCT-116 colon = tested on: HCT-116 colon
SK-MEL-5 melanoma = tested on: SK-MEL-5 melanoma
OVCAR-4 ovarian = tested on: OVCAR-4 ovarian
MCF7 breast = tested on: MCF7 breast
SNB-75 CNS = tested on: SNB-75 CNS
LOX IMVI melanoma = tested on: LOX IMVI melanoma
MDA-MB-231 breast = tested on: MDA-MB-231 breast
COLO 205 colon = tested on: COLO 205 colon
SNB-19 CNS = tested on: SNB-19 CNS
MALME-3M melanoma = tested on: MALME-3M melanoma
SN12C renal = tested on: SN12C renal
UACC-62 melanoma = tested on: UACC-62 melanoma

## CC1=NN(c2cccc(Cl)c2)C2(SCC(=O)N2c2nc3ccccc3s2)/C1=C\c1ccccc1 (centres undefined)
MDA-N
  TGI: 42.3 µM
HOP-92 NSCLC
  TGI: 25.6 µM
SK-MEL-2 melanoma
  TGI: 46.7 µM
HCC-2998 colon
  TGI: 29.3 µM
OVCAR-5 ovarian
  TGI: 58.8 µM
HCT-15 colon
  TGI: 37.4 µM
SF-295 CNS
  TGI: 81.2 µM
CCRF-CEM leukemia
  TGI: > 100 µM
SR leukemia
  TGI: 63.3 µM
SK-OV-3 ovarian
  TGI: 55.1 µM
KM12 colon
  TGI: 32.2 µM
K-562 leukemia
  TGI: 54.4 µM
NCI-H23 lung
  TGI: 51.9 µM
NCI-H226 lung
  TGI: 97.4 µM
SK-MEL-28 melanoma
  TGI: > 100 µM
ACHN renal
  TGI: 48.4 µM
EKVX NSCLC
  TGI: > 100 µM
T-47D breast
  TGI: > 100 µM
SF-539 CNS
  TGI: > 100 µM
A498 renal
  TGI: 51.8 µM
RPMI-8226 leukemia
  TGI: 46.8 µM
PC-3 prostate
  TGI: 64.2 µM
HOP-62 NSCLC
  TGI: 56.7 µM
TK-10 renal
  TGI: > 100 µM
NCI/ADR-RES ovarian
  TGI: 83.3 µM
MOLT-4 leukemia
  TGI: 60.2 µM
NCI-H460 lung
  TGI: 32.4 µM
SF-268 CNS
  TGI: 54.4 µM
U251 CNS
  TGI: 44.3 µM
RXF 393 renal
  TGI: 40.6 µM
DU-145 prostate
  TGI: 45.3 µM
OVCAR-8 ovarian
  TGI: 45.7 µM
786-0 renal
  TGI: 31 µM
NCI-H522 lung
  TGI: 34.6 µM
UACC-257 melanoma
  TGI: 85.2 µM
CAKI-1 renal
  TGI: 53 µM
OVCAR-3 ovarian
  TGI: > 100 µM
M14 melanoma
  TGI: 70.1 µM
HL-60(TB) leukemia
  TGI: 67.7 µM
HT29 colon
  TGI: 44.8 µM
HS 578T breast
  TGI: 55.4 µM
MDA-MB-435
  TGI: 38.9 µM
IGROV1 ovarian
  TGI: 58.7 µM
SW-620 colon
  TGI: 37.3 µM
UO-31 renal
  TGI: 63.6 µM
HCT-116 colon
  TGI: 29.4 µM
SK-MEL-5 melanoma
  TGI: 30.3 µM
OVCAR-4 ovarian
  TGI: 62.7 µM
MCF7 breast
  TGI: 84.3 µM
SNB-75 CNS
  TGI: > 100 µM
LOX IMVI melanoma
  TGI: 66.6 µM
MDA-MB-231 breast
  TGI: 55.5 µM

## Cc1coc2c1[C@@H](O)[C@@]1(C)[C@H](CCC[C@@H]1C)C2
MDA-N
  TGI: 64.1 µM
HOP-92 NSCLC
  TGI: > 100 µM
HCC-2998 colon
  TGI: > 100 µM
OVCAR-5 ovarian
  TGI: > 100 µM
HCT-15 colon
  TGI: > 100 µM
SF-295 CNS
  TGI: > 100 µM
CCRF-CEM leukemia
  TGI: > 100 µM
SR leukemia
  TGI: > 100 µM
SK-OV-3 ovarian
  TGI: > 100 µM
KM12 colon
  TGI: > 100 µM
K-562 leukemia
  TGI: 74.7 µM
COLO 205 colon
  TGI: 60.1 µM
NCI-H23 lung
  TGI: > 100 µM
SNB-19 CNS
  TGI: > 100 µM
NCI-H226 lung
  TGI: 76.3 µM
SK-MEL-28 melanoma
  TGI: > 100 µM
ACHN renal
  TGI: > 100 µM
EKVX NSCLC
  TGI: > 100 µM
T-47D breast
  TGI: > 100 µM
SF-539 CNS
  TGI: 47 µM
MALME-3M melanoma
  TGI: 99 µM
RPMI-8226 leukemia
  TGI: 90.6 µM
PC-3 prostate
  TGI: > 100 µM
HOP-62 NSCLC
  TGI: 93.2 µM
TK-10 renal
  TGI: > 100 µM
NCI/ADR-RES ovarian
  TGI: 54.5 µM
MOLT-4 leukemia
  TGI: 89.4 µM
NCI-H460 lung
  TGI: > 100 µM
SF-268 CNS
  TGI: > 100 µM
RXF 393 renal
  TGI: 55 µM
DU-145 prostate
  TGI: > 100 µM
OVCAR-8 ovarian
  TGI: 47.8 µM
786-0 renal
  TGI: > 100 µM
NCI-H522 lung
  TGI: 73.5 µM
UACC-257 melanoma
  TGI: 84.3 µM
CAKI-1 renal
  TGI: > 100 µM
OVCAR-3 ovarian
  TGI: 64.8 µM
M14 melanoma
  TGI: 43.9 µM
HL-60(TB) leukemia
  TGI: 62 µM
HT29 colon
  TGI: > 100 µM
SN12C renal
  TGI: 75.7 µM
HS 578T breast
  TGI: > 100 µM
MDA-MB-435
  TGI: 38.1 µM
IGROV1 ovarian
  TGI: > 100 µM
SW-620 colon
  TGI: > 100 µM
HCT-116 colon
  TGI: > 100 µM
SK-MEL-5 melanoma
  TGI: 77.5 µM
OVCAR-4 ovarian
  TGI: > 100 µM
MCF7 breast
  TGI: > 100 µM
UACC-62 melanoma
  TGI: > 100 µM
LOX IMVI melanoma
  TGI: > 100 µM
MDA-MB-231 breast
  TGI: 59.3 µM
